This is an account of results in publication PMC9122897, “SHR1032, a novel STING agonist, stimulates anti-tumor immunity and directly induces AML apoptosis” (Scientific Reports, 2022).

A word on the GI50: it is the concentration giving 50% growth inhibition.

One test deals with human PBMCs. As to the kind of experiment: IFNβ ELISA. Type of test: cell-based. Particulars: 5 h, vs ADU-S100. Here is the method: (§1) Figure 2 SHR1032 specifically and potently activates STING signaling pathway. IRF luciferase reporter assays in (a) THP1-STING-R232, THP1-STING-H232, THP1-STING-HAQ, and THP1-STING-KO cells. Cells were stimulated for 24 h with the indicated STING compounds and assessed for luciferase activity. IFNβ production and activation of cGAS-STING signaling pathway in (b) human THP1-STING-R232, human PBMCs from a donor homozygous for the R232 variant, cynomolgus PBMC, and mouse RAW164.7 macrophage cells were treated with STING agonists for 5 h. IFNβ in media was quantified by human or mouse ELISA kits respectively. (c) THP1-STING-R232 cells and mouse RAW164.7 macrophage cells were stimulated with 40 µM of ADU-S100 or 10 µM of SHR1032 for the indicated time points. The amount of pTBK1, total TBK1, STING and α-tubulin was measured by western blotting.
(§2) Human and Cynomolgous PBMC’s were thawed and spun down in Lymphocyte media (ZENBIO) and resuspended in media to 1.5 x 10^6 cells/ml density. […] Human and monkey IFN-β protein concentration was measured using human IFN-β Quantikine ELISA Kits (R&D Systems) per manufacture’s protocol. Mouse IFN-β was measured using mouse IFN-β Quantikine ELISA Kits (R&D Systems) per manufacture’s protocol. Mouse TNFα, IFN-β and IL-6 in the tumor lysates and plasma was measured by Quantikine ELISA Kits (R&D Systems) per manufacture’s protocol.
(In an ELISA, binding on a coated surface is turned into a signal by an enzyme label.)

The test system of test [1] is mouse RAW164.7 macrophage cells. Put plainly: IFNβ ELISA. Type of test: cell-based. The conditions noted are these: 5 h, vs ADU-S100. Here is the method: as §1, §2
The next test deals with cynomolgus PBMC. As to the kind of experiment: IFNβ ELISA. It is filed as cell-based, cynomolgus monkey. The conditions noted are these: 5 h, vs ADU-S100. As to the method:
as §1, §2

Test [2] relates to mouse RAW164.7 macrophage cells. Put plainly: Western blot of TBK1 phosphorylation. Type of test: cell-based. Particulars: 10 µM SHR1032 vs 40 µM ADU-S100. As to the method:
as §1
(§3) THP1 reporter cells were treated for 24 h with a total of 100 k cells and 150 ul media in each well a 96-well plate. […] Luminescence signal was measured using Tecan infinite M1000. EC50 values were calculated using non-linear regression analysis of GraphPad Prism. Cell growth was monitored by CellTiter-Glo Luminescent Cell Viability Assay (Promega) per manufacture’s protocol. GI50 values were calculated using non-linear regression analysis of GraphPad Prism. […]

In the next test the test system is THP1-STING-R232 cells. As to the kind of experiment: Western blot of TBK1 phosphorylation. Type of test: cell-based, human. The conditions noted are these: 10 µM SHR1032 vs 40 µM ADU-S100. As to the method:
as §1, §3
In general terms: In western blotting, separated proteins are transferred to a membrane and probed.

For another test, the system named is THP1-STING-KO cells. Put plainly: Western blot of TBK1 and STING phosphorylation. Type of test: cell-based, human. The conditions noted are these: 1 µM. As to the method:
(§4) (a–d) AML cells were treated with STING agonists and standard of care cytarabine, and cell viability was measured by CellTiter Glo in (a) THP1-STING-R232, (b) THP1-STING-KO, (c) MV-4-11 and (d) MOLM-16. (e) MV-4-11, MOLM-16 and THP1-STING-KO cells were stimulated with 1 µM of SHR1032 for the indicated time points. The amount of pTBK1, total TBK1, pSTING, total STING and α-tubulin was measured by Western blot. pSTING phosphorylated STING. THP1 reporter cells were treated for 24 h with a total of 100 k cells and 150 ul media in each well a 96-well plate. Following the incubation, 20 µl of supernatant was transferred to an opaque 96 well ½ area plate and incubated for 30 s with 50 µl of QUANTI-Luc substrate (InvivoGen) per manufacturer’s instructions. Luminescence signal was measured using Tecan infinite M1000. EC50 values were calculated using non-linear regression analysis of GraphPad Prism. Cell growth was monitored by CellTiter-Glo Luminescent Cell Viability Assay (Promega) per manufacture’s protocol. GI50 values were calculated using non-linear regression analysis of GraphPad Prism. Cell lysates for western blotting were made in RIPA buffer (Sigma) with Halt Protease and Phosphatase Inhibitors (Thermo Scientific). Antibodies against pSTING, TBK1, pTBK1 and tubulin were purchased from Cell Signaling Technologies, and anti-STING was purchased from Protein Tech.

For test [3], the system named is MOLM-16 cells. Put plainly: Western blot of TBK1 and STING phosphorylation. Type of test: cell-based, human. The conditions noted are these: MOLM-16, 1 µM. Here is the method:
as §4

Test [4] concerns MV4-11 cells. Put plainly: Western blot of TBK1 and STING phosphorylation. Type of test: cell-based, human. The conditions noted are these: MV4-11, 1 µM. As to the method:
as §4

Test [5] deals with MOLM-16 cells. As to the kind of experiment: IFNβ ELISA. Particulars: MOLM-16, 5 hrs, compared to THP1 cells. Type of test: cell-based, human. Here is the method: (§5) Human and Cynomolgous PBMC’s were thawed and spun down in Lymphocyte media (ZENBIO) and resuspended in media to 1.5 x 10^6 cells/ml density. Mouse RAW 264.7 cells were detached from the flask and resuspended in media to 1.5 x 10^6 cells/ml density. Then, 100 µl of media containing the cells was added to each well of a 96-well plate containing compound in 50 µl of media. Plates were incubated for 5 h at 37 °C and supernatant was collected for ELISA analysis. Human and monkey IFN-β protein concentration was measured using human IFN-β Quantikine ELISA Kits (R&D Systems) per manufacture’s protocol. Mouse IFN-β was measured using mouse IFN-β Quantikine ELISA Kits (R&D Systems) per manufacture’s protocol. Mouse TNFα, IFN-β and IL-6 in the tumor lysates and plasma was measured by Quantikine ELISA Kits (R&D Systems) per manufacture’s protocol.
(§6) Figure S2. IFNβ measurement in MV4-11, MOLM-16 and THP1-STING-R232 cells treated with SHR1032 for 5 hrs.

The test system of test [6] is MV4-11 cells. Put plainly: IFNβ ELISA. It is filed as cell-based, human. Particulars: MV4-11, 5 hrs, compared to THP1 cells. Here is the method: as §5, §6
Test [7] has as its system MOLM-16 cells. As to the kind of experiment: CellTiter-Glo cell growth. Particulars: Homo sapiens, MOLM16; MOLM-16, CellTiter Glo. Type of test: cell-based. Here is the method: as §4
On the technique in general: ATP-based viability assays read luminescence as a measure of living cells.

The test system of test [8] is MV4-11 cells. As to the kind of experiment: CellTiter-Glo cell growth. Type of test: cell-based. The conditions noted are these: Homo sapiens; MV4-11, CellTiter Glo. Here is the method:
as §4

The structures appear in SMILES notation.

As to `CCn1nc(C)cc1C(=O)Nc1nc2cc(C(N)=O)cc(OC)c2n1CCC[C@H]1COc2cc(C(N)=O)cc3nc(NC(=O)c4cc(C)nn4CC)n1c23` [SHR1032], the “human IFNβ production” value in the test with human PBMCs is “much greater amount of human IFNβ than ADU-S100”. Besides, the “mouse IFNβ production” value in test [1] was “lower than that with that of ADU-S100, but still detectable”. In the test with cynomolgus PBMC, the “monkey IFNβ production” value is “lower than that with that of ADU-S100, but still detectable”. Besides, the TBK1 phosphorylation entry is given as “lower” in test [2] and “higher level of TBK1 phosphorylation than ADU-S100” in the test on THP1-STING-R232 cells. In addition, the “TBK1 and STING phosphorylation” value with THP1-STING-KO cells was “not in THP1-STING-KO cells”; in the test with MOLM-16 cells [3], “induced TBK1 and STING phosphorylation”; in the test on MV4-11 cells [4] it was “induced TBK1 and STING phosphorylation”. Also, the IFNβ production entry was “produced IFNβ, but with a level much lower than that in THP1 cells” in the test on MOLM-16 cells [5] and “produced IFNβ, but with a level much lower than that in THP1 cells” in the test with MV4-11 cells [6]. Also, the GI50 was found to be 2.6 nM with MOLM-16 cells [7] and 1 nM in the test with MV4-11 cells [8].
